Assay results as given in ChEMBL document CHEMBL4011652, “Discovery of Novel Potent Reversible and Irreversible Myeloperoxidase Inhibitors Using Virtual Screening Procedure” (J Med Chem, 2017).
Each block holds one molecule with its values, some of them ahead of it. Calls of active or inactive are those of the source. No cut-off for these calls is given here.

Experiments:
[1] = biological target: T1, Myeloperoxidase (Homo sapiens, UniProt P05164); assay: Inhibition of recombinant MPO (unknown origin) assessed as reduction in taurine chloramine production preincubated with enzyme and taurine followed by H2O2 addition measured after 5 mins
T1 sequence (P05164 whole entry): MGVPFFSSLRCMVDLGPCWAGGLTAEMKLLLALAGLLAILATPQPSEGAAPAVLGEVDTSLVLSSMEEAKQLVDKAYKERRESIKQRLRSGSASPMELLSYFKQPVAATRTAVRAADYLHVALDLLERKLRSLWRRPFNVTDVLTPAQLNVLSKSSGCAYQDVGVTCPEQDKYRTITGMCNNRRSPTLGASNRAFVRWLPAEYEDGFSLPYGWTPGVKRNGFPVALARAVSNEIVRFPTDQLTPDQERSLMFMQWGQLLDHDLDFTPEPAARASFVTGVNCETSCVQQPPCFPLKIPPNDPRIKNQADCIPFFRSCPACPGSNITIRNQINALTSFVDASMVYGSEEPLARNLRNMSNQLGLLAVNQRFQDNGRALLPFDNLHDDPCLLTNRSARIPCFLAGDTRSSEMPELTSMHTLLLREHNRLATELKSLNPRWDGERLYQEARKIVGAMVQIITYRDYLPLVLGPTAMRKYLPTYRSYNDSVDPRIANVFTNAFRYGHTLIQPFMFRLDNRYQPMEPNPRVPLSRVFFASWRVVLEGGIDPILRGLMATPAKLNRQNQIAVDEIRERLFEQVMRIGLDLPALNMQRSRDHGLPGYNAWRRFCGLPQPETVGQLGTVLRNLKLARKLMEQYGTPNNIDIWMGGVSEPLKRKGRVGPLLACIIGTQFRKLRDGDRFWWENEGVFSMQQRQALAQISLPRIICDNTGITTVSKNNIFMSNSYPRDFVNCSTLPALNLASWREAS

[2] = biological target: T2, Myeloperoxidase (Homo sapiens) (UniProt P05164); assay: Inhibition of recombinant MPO (unknown origin) assessed as reduction in taurine chloramine production at 5 uM preincubated with enzyme and taurine followed by H2O2 addition measured after 5 mins relative to control
T2 sequence (whole entry): T1 sequence (P05164 whole entry)

[3] = biological target: T2, Myeloperoxidase (Homo sapiens); assay: Inhibition of MPO (unknown origin) assessed as apparent bi-molecular rate constant for PorFe(4)=O radical reduction by stopped-flow spectroscopic analysis
[4] = biological target: T2, Myeloperoxidase (Homo sapiens); assay: Inhibition of MPO (unknown origin) assessed as apparent bi-molecular rate constant for PorFe(4)-OH reduction by stopped-flow spectroscopic analysis
[5] = biological target: T2, Myeloperoxidase (Homo sapiens); assay: Inhibition of recombinant MPO (unknown origin) assessed as reduction in TMB peroxidation by measuring residual activity at 5 uM in presence of H2O2 incubated for 5 mins followed by 100 fold enzyme dilution relative to control
[6] = biological target: T1, Myeloperoxidase; assay: Inhibition of recombinant MPO (unknown origin) assessed as reduction in LDL oxidation in presence of H2O2 and HCl after 5 mins by ELISA
[7] = biological target: T2, Myeloperoxidase (Homo sapiens); assay: Inhibition of recombinant MPO (unknown origin) assessed as reduction in TMB peroxidation by measuring residual activity at 5 uM in presence of H2O2 and NaCl incubated for 5 mins followed by 100 fold enzyme dilution relative to control
[8] = test system: NHDF; assay: Cytotoxicity against NHDF assessed as reduction in cell viability after 72 hrs by MTT assay; format: cell-based; conditions: Homo sapiens
[9] = test system: Neutrophil; assay: Induction of apoptosis in human neutrophils assessed as compound concentration required for effect after 30 mins by JC1 staining based flow cytometry; format: cell-based; conditions: 0.5 h
[10] = test system: Neutrophil; assay: Induction of apoptosis in human neutrophils up to 1 mM after 30 mins by JC1 staining based flow cytometry; format: cell-based; conditions: 0.5 h
[11] = biological target: Lactoperoxidase (Bos taurus, UniProt P80025); assay: Inhibition of bovine milk LPO assessed as reduction in NaOSCN production in presence of H2O2/NaSCN after 5 mins
[12] = biological target: T1, Myeloperoxidase; assay: Inhibition of MPO in human neutrophils assessed as reduction in HOCl production preincubated for 30 mins followed by H2O2 addition by APF staining based flow cytometry
[13] = biological target: T2, Myeloperoxidase (Homo sapiens); assay: Inhibition of recombinant MPO (unknown origin) assessed as reduction in TMB peroxidation by measuring residual activity at 5 uM in absence of H2O2 incubated for 5 mins followed by 100 fold enzyme dilution relative to control
[14] = biological target: T2, Myeloperoxidase (Homo sapiens); conditions: 1 to 5 uM
Description: Inhibition of MPO in human neutrophils assessed as reduction in HOCl production at 1 to 5 uM preincubated for 30 mins followed by H2O2 addition by APF staining based flow cytometry relative to control

[15] = test system: Neutrophil; assay: Induction of apoptosis in human neutrophils assessed as increase in necrotic cells at >= 50 uM after 30 mins by JC1 staining based flow cytometry; format: cell-based; conditions: 0.5 h
[16] = Selectivity ratio of IC50 for bovine milk LPO to IC50 for recombinant MPO (unknown origin)
[17] = biological target: T2, Myeloperoxidase (Homo sapiens); conditions: 5 uM
Description: Irreversible inhibition of recombinant MPO (unknown origin) assessed as reduction in guaiacol peroxidation by measuring enzyme activity recovery at 5 uM incubated for 20 mins followed by 200 fold dilution measured for 10 mins

IC50 [1]: > 5 µM
SMILES: C[C@H]1CN(c2cc3c(cc2F)c(=O)c(C(=O)O)cn3C2CC2)CCN1

IC50 [1]: 0.9 µM
SMILES: Cc1nc(NC(=N)N)nc2ccccc12

inhibition [2]: 12.3%
SMILES: CN(C)CCCN1c2ccccc2Sc2ccc(C(F)(F)F)cc21

IC50 [1]: 0.02 µM
SMILES: Fc1ccc([C@@H]2CCNC[C@H]2COc2ccc3c(c2)OCO3)cc1 [PAROXETINE]

inhibition [2]: inactive | Kapp [3]: 3.1 ×10⁴ /M/s | Kapp [4]: 1.2 ×10³ /M/s | IC50 [1]: > 5 µM
SMILES: CCn1cc(C(=O)O)c(=O)c2cc(F)c(N3CCN[C@@H](C)C3)c(F)c21

IC50 [1]: 4.68 µM
SMILES: O[C@@H]1CN[C@H](c2nc(Cc3ccc(F)cc3Cl)no2)C1

SMILES: NCCCCc1c[nH]c2ccc(F)cc12
IC50 [1]: 0.008 µM

IC50 [1]: 0.756 µM
SMILES: Cc1nc(N=C(N)N)nc2ccc(Br)cc12

Activity [5]: 84% | IC50 [6]: 0.12 µM | Activity [7]: 84% | IC50 [11]: > 5 µM | IC50 [12]: 314 µM | IC50 [1]: 0.05 µM | Activity [13]: 83%
SMILES: Fc1ccc2[nH]c([C@@H]3CCN(CC4NC=CN4)C3)nc2c1
IC50 [8]: > 50 µM | Activity [9]: > 50 µM | Activity [10]: Non-Toxic

Activity [5]: 87% | Activity [7]: 81% | IC50 [11]: > 5 µM | IC50 [1]: 0.13 µM | Activity [13]: 79%
SMILES: CC(C)NCC(=O)c1nc2cc(F)ccc2[nH]1
IC50 [8]: > 50 µM

IC50 [1]: 0.106 µM
SMILES: Cc1nc(NC(=N)N)nc2cc(Br)ccc12

inhibition [2]: 11%
SMILES: Cc1ccc(-c2cc(C(F)(F)F)nn2-c2ccc(S(N)(=O)=O)cc2)cc1

IC50 [1]: 0.085 µM
SMILES: c1c2c(cc3c4n(nc13)CCS4)OCO2

inhibition [14]: 67 to 71% | Activity [5]: 4% | Kapp [3]: 1.9 ×10⁶ /M/s | IC50 [6]: 0.09 µM | Activity [7]: 5% | IC50 [11]: 3.2 µM | IC50 [12]: 93.1 µM | IC50 [1]: 0.044 µM | Ratio IC50 [16]: 73 | inhibition [17]: Active | Activity [13]: 84%
SMILES: COc1ccc2c(C)nc(NC(=N)N)nc2c1
Activity [15]: Toxic | IC50 [8]: 17 µM | Activity [9]: > 50 µM | Activity [10]: Non-Toxic

SMILES: O=c1cc(-c2ccc(O)cc2)oc2cc(O)cc(O)c12 [APIGENIN]
IC50 [11]: 17.8 µM | IC50 [1]: 3.8 µM | Ratio IC50 [16]: 5.6

IC50 [1]: 7.68 µM
SMILES: CCN1CCC[C@H]1CNC(=O)c1cc(S(N)(=O)=O)ccc1OC [LEVOSULPIRIDE]
